Assays:
FGFR1(h) = FGFR1(h) (Homo sapiens, UniProt P11362); test: Kinase assay, FGFR1(h); assay type: biochemical; settings: 1 μM
Method: (§1) Kinase assay protocols well known to those of ordinary skill in the art were used. Specifically, the buffer composition was as follows: 20 mM MOPS, 1 mM EDTA, 0.01% Brij-35, 5% Glycerol, 0.1% β-mercaptoethanol, 1 mg/mL BSA. Test compounds were initially dissolved in DMSO at the desired concentration, then serially diluted to the kinase assay buffer. In a final reaction volume of 25 μL FGFR1(h) (5-10 mU) and KDR(h) (5-10 mU) are incubated with 8 mM MOPS pH 7.0, 0.2 mM EDTA, 200 μM LRRASLG (Kemptide), 10 mM magnesium acetate and [γ^33P-ATP]. The reaction was initiated by the addition of the MgATP mix. After incubation for 40 minutes at room temperature, the reaction was stopped by addition of 5 μL of a 3% phosphoric acid solution. Ten L of the reaction was then spotted onto a P30 filter mat and washed three times for 5 minutes in 50 mM phosphoric acid and once in methanol prior to drying and scintillation counting. Wells containing substrate but no kinase and wells containing a phosphopeptide control were used to set 0% and 100% phosphorylation value, respectively.
(§2) Of all of the steps in developing a drug, the hardest is finding promising compounds. (See, e.g., Malo et al., “Statistical practice in high-throughput screening data analysis,” Nature Biotechnology, 2006, 24, 167-75.) Kinase inhibitors often also have an anti-proliferative effect. […] The kinase inhibitory activity Compound 19 was tested using the kinase assay described in Example 3. […] These mutations in the tested kinases are thought to play an important role in transformation of some cancers.

KDR(h) = KDR(h) (Homo sapiens, UniProt P35968); test: Kinase assay, KDR(h); assay type: biochemical
Sequence of KDR(h) (P35968 20-1356): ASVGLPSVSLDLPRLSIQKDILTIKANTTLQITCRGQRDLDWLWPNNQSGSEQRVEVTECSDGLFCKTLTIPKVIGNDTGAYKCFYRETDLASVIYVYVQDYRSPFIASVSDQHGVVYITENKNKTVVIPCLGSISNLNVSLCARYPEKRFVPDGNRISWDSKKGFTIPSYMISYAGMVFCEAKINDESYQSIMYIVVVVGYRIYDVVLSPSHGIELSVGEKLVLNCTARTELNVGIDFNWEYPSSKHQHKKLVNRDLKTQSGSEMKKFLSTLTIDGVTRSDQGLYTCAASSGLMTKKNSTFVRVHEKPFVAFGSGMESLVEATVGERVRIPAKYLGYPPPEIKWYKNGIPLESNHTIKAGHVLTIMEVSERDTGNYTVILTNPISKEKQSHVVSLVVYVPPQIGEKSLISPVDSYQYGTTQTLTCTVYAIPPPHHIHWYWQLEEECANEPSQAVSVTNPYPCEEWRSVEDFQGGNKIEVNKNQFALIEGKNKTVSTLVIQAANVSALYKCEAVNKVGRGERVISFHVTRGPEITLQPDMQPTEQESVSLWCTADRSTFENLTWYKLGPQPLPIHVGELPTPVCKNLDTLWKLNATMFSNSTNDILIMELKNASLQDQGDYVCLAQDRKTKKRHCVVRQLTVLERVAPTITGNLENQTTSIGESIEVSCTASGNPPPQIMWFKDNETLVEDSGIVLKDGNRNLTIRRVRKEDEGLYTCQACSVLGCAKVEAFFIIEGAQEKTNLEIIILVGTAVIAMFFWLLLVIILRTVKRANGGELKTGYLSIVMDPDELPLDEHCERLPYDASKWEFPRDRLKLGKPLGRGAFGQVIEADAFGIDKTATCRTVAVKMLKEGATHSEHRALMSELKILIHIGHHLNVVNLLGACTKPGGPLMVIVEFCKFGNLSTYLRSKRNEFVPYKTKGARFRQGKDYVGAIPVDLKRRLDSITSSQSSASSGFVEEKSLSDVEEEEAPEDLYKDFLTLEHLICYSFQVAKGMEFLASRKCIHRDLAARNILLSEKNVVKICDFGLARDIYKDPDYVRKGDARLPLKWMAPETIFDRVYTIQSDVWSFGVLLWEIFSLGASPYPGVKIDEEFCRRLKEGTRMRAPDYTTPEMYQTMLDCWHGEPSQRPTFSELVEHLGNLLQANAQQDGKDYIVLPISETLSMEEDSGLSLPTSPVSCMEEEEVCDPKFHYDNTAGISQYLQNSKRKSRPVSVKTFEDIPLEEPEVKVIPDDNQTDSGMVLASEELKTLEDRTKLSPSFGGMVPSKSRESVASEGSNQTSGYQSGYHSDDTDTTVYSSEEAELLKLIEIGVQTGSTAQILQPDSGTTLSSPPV
Method: as §1, §2

KG1a = test: Inhibition of proliferation (CellTiterblue, 72 hr), KG1a; assay type: cell-based, human; settings: Homo sapiens, KG-1a; 72 hr
Method: (§3) A number of studies were performed to analyze the consequences of tyrosine kinase inhibition in cell lines. To do this, 1000 cells are seeded in 27 μl/well in 384-well microplates, which are then placed in a humidified CO2 incubator at 37° C. overnight. The next day, 3 μl/well of 10× concentrated drug is added and the plates are returned to the incubator for 72 hr. After 72 hr incubation, plates are removed and 6 μl/well CellTiterblue (Promega) viability reagent is added. Plates are returned to the incubator for 3 hrs, after which fluorescence measurements are read on the Victor X3 plate reader (Perkin Elmer). Data are analyzed using Excel (Microsoft), and GI50 values are determined using Prism (Graphpad).

SNU16 = test: Inhibition of proliferation (CellTiterblue, 72 hr), SNU16; assay type: cell-based; settings: Homo sapiens, SNU-16, 72 h
Method: as §3

Kato III = test: Inhibition of proliferation (CellTiterblue, 72 hr), Kato III; assay type: cell-based; settings: Homo sapiens, KATO III, 72 h
Method: as §3

RT112 = test: Inhibition of proliferation (CellTiterblue, 72 hr), RT112; assay type: cell-based; settings: Homo sapiens, RT-112, 72 h
Method: as §3

Sequence of FGFR1(h) (P11362 22-822): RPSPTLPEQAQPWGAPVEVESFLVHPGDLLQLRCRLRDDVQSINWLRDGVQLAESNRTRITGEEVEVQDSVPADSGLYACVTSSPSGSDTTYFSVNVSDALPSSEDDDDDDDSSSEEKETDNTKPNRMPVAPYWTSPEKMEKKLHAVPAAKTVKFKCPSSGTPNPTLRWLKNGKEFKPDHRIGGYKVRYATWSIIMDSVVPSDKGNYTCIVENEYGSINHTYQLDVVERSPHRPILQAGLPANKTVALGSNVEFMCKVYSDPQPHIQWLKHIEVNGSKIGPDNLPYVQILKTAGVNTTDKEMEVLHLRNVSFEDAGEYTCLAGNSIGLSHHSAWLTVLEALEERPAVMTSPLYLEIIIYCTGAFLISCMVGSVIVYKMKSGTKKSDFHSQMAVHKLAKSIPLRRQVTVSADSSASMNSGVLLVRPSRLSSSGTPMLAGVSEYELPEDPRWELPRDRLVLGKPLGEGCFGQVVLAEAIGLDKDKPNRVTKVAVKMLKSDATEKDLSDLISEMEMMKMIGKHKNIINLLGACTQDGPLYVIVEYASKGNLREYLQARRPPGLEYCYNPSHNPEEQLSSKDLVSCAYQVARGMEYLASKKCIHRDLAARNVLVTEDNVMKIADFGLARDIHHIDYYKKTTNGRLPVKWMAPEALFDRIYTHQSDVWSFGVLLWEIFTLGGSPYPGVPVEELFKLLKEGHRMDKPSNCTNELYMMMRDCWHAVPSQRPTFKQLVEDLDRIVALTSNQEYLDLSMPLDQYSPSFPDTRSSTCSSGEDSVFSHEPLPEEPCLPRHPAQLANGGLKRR

inhibition at 1 µM (FGFR1(h)) [%]	inhibition at 1 µM (KDR(h)) [%]	GI50 (SNU16) [nM]	Compound	GI50 (KG1a) [nM]	GI50 (Kato III) [nM]	GI50 (RT112) [nM]
92	69	–	CC(=O)N(C)c1ccc(Nc2ncnc(Oc3cc(F)c4[nH]c(C)cc4c3F)c2C#N)cc1 [Compound 32]	–	–	–
100	95	–	Cc1cc2c(F)c(Oc3ncnc(Nc4ccc(NC(=O)C5CC5)cc4)c3C#N)cc(F)c2[nH]1 [Compound 35]	78	–	–
99	67	–	Cc1cc2c(F)c(Oc3ncnc(Nc4ccc(C(N)=O)cc4)c3C#N)cc(F)c2[nH]1 [Compound 36]	182	–	–
99	70	–	CNC(=O)c1ccc(Nc2ncnc(Oc3cc(F)c4[nH]c(C)cc4c3F)c2C#N)cc1 [Compound 37]	–	–	–
90	73	–	Cc1cc2c(F)c(Oc3ncnc(Nc4ccc(C(=O)N(C)C)cc4)c3C#N)cc(F)c2[nH]1 [Compound 38]	–	–	–
91	36	–	Cc1cc2c(F)c(Oc3ncnc(Nc4ccc(F)cc4)c3C#N)cc(F)c2[nH]1 [Compound 39]	–	–	–
78	20	–	Cc1cc2c(F)c(Oc3ncnc(Nc4ccc(Cl)cc4)c3C#N)cc(F)c2[nH]1 [Compound 40]	–	–	–
101	96	–	Cc1cc2c(F)c(Oc3ncnc(Nc4ccc(N5CCCC5=O)cc4)c3C#N)cc(F)c2[nH]1 [Compound 41]	180	–	–
101	96	–	Cc1cc2c(F)c(Oc3ncnc(Nc4ccc5[nH]ccc5c4)c3C#N)cc(F)c2[nH]1 [Compound 42]	35	–	–
97	76	–	Cc1cc2c(F)c(Oc3ncnc(Nc4ccccc4O)c3C#N)cc(F)c2[nH]1 [Compound 43]	–	–	–
41	14	–	Cc1cc2c(F)c(Oc3ncnc(Nc4ccc([N+](=O)[O-])cc4)c3C#N)cc(F)c2[nH]1 [Compound 44]	–	–	–
101	91	–	CCC(=O)Nc1cccc(Nc2ncnc(Oc3cc(F)c4[nH]c(C)cc4c3F)c2C#N)c1 [Compound 52]	174	–	–
89	17	–	COC(=O)c1ccc(Nc2ncnc(Oc3cc(F)c4[nH]c(C)cc4c3F)c2C#N)cc1 [Compound 54]	–	–	–
55	6	–	Cc1cc2c(F)c(Oc3ncnc(Nc4ccc(C#N)cc4)c3C#N)cc(F)c2[nH]1 [Compound 55]	–	–	–
–	–	6	CCC(=O)Nc1ccc(Nc2ncnc(Oc3cc(F)c4[nH]c(C)cc4c3F)c2C#N)cc1 [Compound 57]	15	–	–
–	–	92	C/C=C/C(=O)Nc1ccc(Nc2ncnc(Oc3cc(F)c4[nH]c(C)cc4c3F)c2C#N)cc1 [Compound 60]	101	–	–

Second part, the compound before the results:

Compound	inhibition at 1 µM (FGFR1(h)) [%]	inhibition at 1 µM (KDR(h)) [%]	GI50 (SNU16) [nM]	GI50 (KG1a) [nM]	GI50 (Kato III) [nM]	GI50 (RT112) [nM]
COc1cc(N2CCN(C)CC2)ccc1Nc1ncnc(Oc2ccc3[nH]c(C)cc3c2F)c1C#N [Compound 1]	99	96	–	49	–	–
Cc1cc2c(F)c(Oc3ncnc(Nc4ccc(N5CCN(C)CC5)c(F)c4)c3C#N)ccc2[nH]1 [Compound 2]	100	96	–	62	–	–
Cc1cc2c(F)c(Oc3ncnc(N4CCN(C)CC4)c3C#N)ccc2[nH]1 [Compound 3]	1	4	–	–	–	–
CCN1CCN(c2ccc(Nc3ncnc(Oc4ccc5[nH]c(C)cc5c4F)c3C(F)F)cc2)CC1 [Compound 5]	26	9	–	–	–	–
Cc1cc2c(F)c(Oc3ncnc(Nc4ccc(C(=O)N5CCN(C)CC5)cc4)c3C#N)ccc2[nH]1 [Compound 6]	85	95	–	–	–	–
Cc1cc2c(F)c(Oc3ncnc(Nc4ccc(N5CCN(C)CC5)c(C(F)(F)F)c4)c3C#N)ccc2[nH]1 [Compound 7]	49	94	–	–	–	–
CCN1CCN(c2ccc(Nc3ncnc(Oc4ccc5[nH]c(C)cc5c4F)c3C#N)cc2F)CC1 [Compound 8]	97	96	–	250	–	–
Cc1cc2c(F)c(Oc3ncnc(Nc4ccc(N5CCNCC5)c(F)c4)c3C#N)ccc2[nH]1 [Compound 9]	100	96	–	314	–	–
Cc1cc2c(F)c(Oc3ncnc(Nc4ccc(CN5CCNCC5)cc4)c3C#N)ccc2[nH]1 [Compound 10]	34	23	–	–	–	–
Cc1cc2c(F)c(Oc3ncnc(Nc4ccc(N5CCC(N(C)C)CC5)cc4)c3C#N)ccc2[nH]1 [Compound 11]	100	96	–	25	–	–
Cc1cc2c(F)c(Oc3ncnc(Nc4ccc(-n5ccnc5)cc4)c3C#N)ccc2[nH]1 [Compound 12]	56	67	–	–	–	–
Cc1cc2c(F)c(Oc3ncnc(Nc4ccc(-n5ccnc5C)cc4)c3C#N)ccc2[nH]1 [Compound 13]	48	85	–	–	–	–
Cc1cc2c(F)c(Oc3ncnc(Nc4ccc(C)c(S(N)(=O)=O)c4)c3C#N)ccc2[nH]1 [Compound 15]	94	96	–	–	–	–
Cc1cc2c(F)c(Oc3ncnc(Nc4ccc(N5C[C@@H](C)N[C@@H](C)C5)c(F)c4)c3C#N)ccc2[nH]1 [Compound 16]	100	96	–	15	–	–
Cc1cc2c(F)c(Oc3ncnc(Nc4ccc(N5CCN(CC(F)(F)F)CC5)cc4)c3C#N)ccc2[nH]1 [Compound 18]	76	92	–	–	–	–
Cc1cc2c(F)c(Oc3ncnc(Nc4ccc(N5CCN(CC(F)(F)F)CC5)cc4)c3C#N)cc(F)c2[nH]1 [Compound 20]	70	42	–	–	–	–
Cc1cc2c(F)c(Oc3ncnc(Nc4cccc(N5CCOCC5)c4)c3C#N)ccc2[nH]1 [Compound 21]	100	96	–	–	–	–
CCN1CCN(c2cccc(Nc3ncnc(Oc4ccc5[nH]c(C)cc5c4F)c3C#N)c2)CC1 [Compound 22]	100	96	–	196	–	–
Cc1cc2c(F)c(Oc3ncnc(Nc4ccccc4)c3C#N)ccc2[nH]1 [Compound 23]	98	96	–	–	–	–
Cc1cc2c(F)c(Oc3ncnc(Nc4ccc(N5CCCCC5)cc4)c3C#N)ccc2[nH]1 [Compound 24]	86	95	–	–	–	–
CC(=O)Nc1ccc(Nc2ncnc(Oc3ccc4[nH]c(C)cc4c3F)c2C#N)cc1 [Compound 25, N-(4-((5-cyano-6-((4-fluoro-2-methyl-1H-indol-5-yl)oxy)pyrimidin-4-yl)amino)phenyl)acetamide]	99	96	–	30	–	–
Cc1cc2c(F)c(Oc3ncnc(Nc4ccc(NS(C)(=O)=O)cc4)c3C#N)ccc2[nH]1 [Compound 26]	97	96	–	–	–	–
Cc1cc2c(F)c(Oc3ncnc(Nc4ccc(N5CCNC(=O)C5)cc4)c3C#N)ccc2[nH]1 [Compound 27]	99	97	–	–	–	–
Cc1cc2c(F)c(Oc3ncnc(Nc4ccc(N5CCCS5(=O)=O)cc4)c3C#N)ccc2[nH]1 [Compound 28]	99	96	–	226	–	–
CCOc1ccc(Nc2ncnc(Oc3ccc4[nH]c(C)cc4c3F)c2C#N)cc1 [Compound 29]	91	95	–	–	–	–
Cc1cc2c(F)c(Oc3ncnc(Nc4ccc(C5CCNCC5)cc4)c3C#N)ccc2[nH]1 [Compound 30]	91	94	–	–	–	–
Cc1cc2c(F)c(Oc3ncnc(Nc4ccc(N5CCN(CCO)CC5)cc4)c3C#N)cc(F)c2[nH]1 [Compound 31]	102	95	32	0.35	205	171
Cc1cc2c(F)c(Oc3ncnc(Nc4ccc(NC(=O)CN5CCOCC5)cc4)c3C#N)cc(F)c2[nH]1 [Compound 58]	–	–	122	101	–	–
Cc1cc2c(F)c(Oc3ncnc(Nc4ccc(NC(=O)CN5CCN(C)CC5)cc4)c3C#N)cc(F)c2[nH]1 [Compound 59]	–	–	79	31	–	–
Cc1cc2c(F)c(Oc3ncnc(Nc4ccc(N5C[C@@H](C)N[C@@H](C)C5)nc4)c3C#N)cc(F)c2[nH]1 [Compound 61]	–	–	75	4	–	–
